Laboratory results published in ChEMBL document CHEMBL1201862, “PubChem BioAssay data set” (2004).
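Each compound was tested at five concentrations against cells in 96-well plates for 48 hours. The concentration for 50% growth inhibition is given as GI50.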 Activity calls are given as the source filed them. No stated cut-off is given here; in the data, active = GI50 up to about 1.1 µM and inactive = higher.

Legend:
Test in all cases: NCI tumour cell line growth inhibition, 48 h
EKVX = tested on: EKVX
SK-OV-3 = tested on: SK-OV-3
SK-MEL-5 = tested on: SK-MEL-5
A498 = tested on: A498
OVCAR-4 = tested on: OVCAR-4
MDA-MB-435 = tested on: MDA-MB-435
M14 = tested on: M14
SF-539 = tested on: SF-539
SNB-19 = tested on: SNB-19
HOP-92 = tested on: HOP-92
MDA-MB-231 = tested on: MDA-MB-231
U-251 = tested on: U-251
NCI-H226 = tested on: NCI-H226
CAKI-1 = tested on: CAKI-1
COLO 205 = tested on: COLO 205
NCI-H522 = tested on: NCI-H522
786-0 = tested on: 786-0
BT-549 = tested on: BT-549
IGROV-1 = tested on: IGROV-1
HL-60 = tested on: HL-60

Measured: GI50

c1cc(CNCCN2CCNCC2)ccn1
inactive: EKVX > 100 µM | SK-OV-3 > 100 µM | SK-MEL-5 > 100 µM | A498 > 100 µM | OVCAR-4 > 100 µM | MDA-MB-435 > 100 µM | M14 > 100 µM | SF-539 > 100 µM | SNB-19 > 100 µM | HOP-92 > 100 µM | MDA-MB-231 > 100 µM | U-251 > 100 µM | NCI-H226 > 100 µM | CAKI-1 > 100 µM | COLO 205 > 100 µM | NCI-H522 > 100 µM | 786-0 > 100 µM | BT-549 > 100 µM | IGROV-1 > 100 µM

COC(=O)c1sc(=O)sc1SCc1cccc(CSc2sc(=O)sc2C(=O)OC)c1
inactive: EKVX 42.8 µM | SK-OV-3 22.7 µM | SK-MEL-5 > 100 µM | A498 36.1 µM | OVCAR-4 15.9 µM | MDA-MB-435 60.1 µM | M14 36.4 µM | SNB-19 22.3 µM | HOP-92 24.2 µM | MDA-MB-231 24.9 µM | U-251 17.4 µM | NCI-H226 61.4 µM | CAKI-1 28.4 µM | COLO 205 > 100 µM | NCI-H522 29 µM | 786-0 17.6 µM | BT-549 36.4 µM | IGROV-1 30.7 µM

CSc1ncc2c(n1)C(C#N)C1Sc3ccccc3N1C2=O (stereo unspecified)
inactive: EKVX > 100 µM | SK-OV-3 > 100 µM | SK-MEL-5 > 100 µM | A498 > 100 µM | OVCAR-4 > 100 µM | MDA-MB-435 > 100 µM | M14 > 100 µM | SF-539 37.3 µM | SNB-19 53.6 µM | HOP-92 80 µM | MDA-MB-231 > 100 µM | U-251 34.5 µM | NCI-H226 > 100 µM | CAKI-1 > 100 µM | COLO 205 > 100 µM | NCI-H522 62.2 µM | 786-0 76.9 µM | BT-549 > 100 µM | IGROV-1 > 100 µM

CC(C)=CC(=O)c1[nH]c2ccccc2c1CC(=O)NCCc1cncn1C
inactive: EKVX 25.8 µM | SK-OV-3 > 100 µM | SK-MEL-5 94.8 µM | A498 30 µM | OVCAR-4 > 100 µM | MDA-MB-435 47 µM | M14 72.3 µM | SF-539 60.7 µM | SNB-19 93.8 µM | HOP-92 36.4 µM | MDA-MB-231 84.3 µM | U-251 74.5 µM | NCI-H226 88.3 µM | CAKI-1 > 100 µM | COLO 205 21.9 µM | NCI-H522 21.8 µM | 786-0 98.9 µM | BT-549 56.9 µM | IGROV-1 47.4 µM

O=C(O)c1cc(Cl)cc2c1NC1(N2)C(=O)Nc2ccccc21 (stereo unspecified)
inactive: EKVX > 100 µM | SK-OV-3 > 100 µM | SK-MEL-5 > 100 µM | A498 > 100 µM | OVCAR-4 > 100 µM | MDA-MB-435 > 100 µM | M14 > 100 µM | SF-539 > 100 µM | SNB-19 > 100 µM | HOP-92 > 100 µM | MDA-MB-231 > 100 µM | U-251 42.5 µM | NCI-H226 > 100 µM | CAKI-1 > 100 µM | COLO 205 > 100 µM | NCI-H522 > 100 µM | 786-0 > 100 µM | BT-549 > 100 µM | IGROV-1 33.3 µM

COC(OC)C1OC(CO)C(n2ccc(N)nc2=O)C1O (stereo unspecified)
inactive: EKVX > 100 µM | SK-OV-3 > 100 µM | SK-MEL-5 > 100 µM | A498 > 100 µM | OVCAR-4 > 100 µM | MDA-MB-435 > 100 µM | M14 > 100 µM | SF-539 > 100 µM | SNB-19 > 100 µM | HOP-92 > 100 µM | MDA-MB-231 > 100 µM | U-251 > 100 µM | NCI-H226 > 100 µM | CAKI-1 > 100 µM | COLO 205 > 100 µM | NCI-H522 > 100 µM | 786-0 > 100 µM | BT-549 > 100 µM | IGROV-1 > 100 µM

Cc1cc2nc3[nH]nc(N)c3nc2cc1C
inactive: EKVX 31.4 µM | HL-60 > 100 µM | SK-OV-3 > 100 µM | A498 > 100 µM | OVCAR-4 > 100 µM | MDA-MB-435 > 100 µM | M14 > 100 µM | SNB-19 > 100 µM | HOP-92 > 100 µM | MDA-MB-231 > 100 µM | U-251 > 100 µM | NCI-H226 17.7 µM | CAKI-1 > 100 µM | COLO 205 44.4 µM | NCI-H522 > 100 µM | 786-0 > 100 µM | BT-549 > 100 µM | IGROV-1 > 100 µM

O=C(O)C(=Cc1ccc(-c2ccc([N+](=O)[O-])cc2)o1)C(=O)O
inactive: EKVX > 100 µM | HL-60 > 10 µM | SK-OV-3 > 100 µM | SK-MEL-5 > 100 µM | A498 > 100 µM | MDA-MB-435 > 100 µM | M14 > 100 µM | SF-539 > 100 µM | SNB-19 > 100 µM | MDA-MB-231 > 100 µM | U-251 > 100 µM | NCI-H226 > 100 µM | CAKI-1 > 100 µM | COLO 205 > 100 µM | NCI-H522 > 100 µM | 786-0 > 100 µM | BT-549 > 100 µM | IGROV-1 > 100 µM

C[C@H]1CC[C@@H]2[C@@H](C)[C@H]3[C@H](C[C@H]4[C@@H]5CC=C6C[C@@H](O)CC[C@]6(C)[C@H]5C[C@H](O)[C@]34C)N2C1
inactive: EKVX > 100 µM | SK-OV-3 > 100 µM | SK-MEL-5 > 100 µM | A498 > 100 µM | OVCAR-4 > 100 µM | MDA-MB-435 > 100 µM | M14 > 100 µM | SF-539 > 100 µM | SNB-19 > 100 µM | HOP-92 > 100 µM | MDA-MB-231 > 100 µM | U-251 > 100 µM | NCI-H226 > 100 µM | CAKI-1 > 100 µM | COLO 205 > 100 µM | NCI-H522 > 100 µM | 786-0 > 100 µM | BT-549 > 100 µM | IGROV-1 > 100 µM

C[C@H](CC[C@@H](O)C(C)(C)O)[C@H]1CC[C@@]2(C)[C@@H]3CC=C4[C@@H](CC[C@H](O)C4(C)C)[C@]3(C)C(=O)C[C@]12C [BRYODULCOSIGENIN]
inactive: EKVX 21.2 µM | HL-60 24.5 µM | SK-OV-3 42.5 µM | SK-MEL-5 24.7 µM | A498 > 50 µM | OVCAR-4 > 50 µM | MDA-MB-435 37.6 µM | M14 29 µM | SF-539 > 50 µM | SNB-19 > 50 µM | MDA-MB-231 > 50 µM | U-251 38.5 µM | NCI-H226 20.8 µM | COLO 205 11.1 µM | NCI-H522 31.7 µM | 786-0 38.3 µM | BT-549 23.6 µM | IGROV-1 > 50 µM
